Results published in patent US6368618B1, “Composition and method for enhanced transdermal absorption of nonsteroidal anti-inflammatory drugs” (The University of Georgia Research Foundation, Inc., priority 1999, dated 2002).

How the values were obtained:
Format in all cases: physicochemical
[1] = Melt state of ibuprofen and thymol in aqueous isopropyl alcohol; conditions: racemic ibuprofen in place of S(+)-ibuprofen, with thymol and aqueous IPA, samples as in Table 3, 25° C.
Experimental: (10 g total weight). Replicate samples of these mixtures were prepared at 25° C. and were stored at 25, 15, and 4° C. for three months. During storage, the melt states of the composition were examined weekly using an optical microscope. The results are shown in Table 3, where O and S denote systems described as in FIG. 1-A and 1-B, respectively, at the corresponding temperature. […] The lower the SI:T ratio and the higher the alcohol content, the lower the melting range of the solid components in the mixture, as shown by the attainment of the melt state. […] Thus the use of thymol and aqueous isopropyl alcohol in combination allows the preparation of two phase melt systems with the highest possible SI:T ratio and the lowest isopropyl alcohol content at 25° C.

[2] = Melt state of ibuprofen in aqueous isopropyl alcohol (optical microscope); set-up: key: S: solid crystals present (FIG. 1-B); O: no crystals present (FIG. 1-A); conditions: 25° C.
Description: The total weight of each mixture was 10 g.
FIG. 1-A represents a two phase melt system with homogeneous oil and aqueous phases, and FIG. 1-B represents a system where complete melt is not achieved. […] (FIG. 1-B). […] (FIG. 1-A).

[3] = Melt state of physical mixtures of S(+)-ibuprofen and thymol; conditions: physical mixtures with thymol
Description: The melt states of the two compounds were then examined weekly for 3 months using an optical microscope.

[4] = Composition of the oil phase of two phase melt systems by GC-MS; conditions: oil phase of dispersion with 15% isopropyl alcohol, no thymol
Experimental: The composition of the oil phase formed in the dispersion containing 15% isopropyl alcohol was determined by the gas chromatrography-mass spectrometry (GC-MS) analysis.
After ultracentrifugation at 20,000 rpm for 30 minutes at 25° C. of selected two phase melt systems (Systems I, II, III and IV as shown in Table 3) that had been stored at 25° C. for three months, a portion of the oil phase of these melt systems was removed using a micro-sampling tube and was weighed accurately by a taring method.

Which results are given for `CC(C)Cc1ccc(C(C)C(=O)O)cc1` (racemic) [racemic ibuprofen, a-methyl-4-(2-methylpropyl) benzene-acetic acid]?
Melt state [1]: complete melt of the solids was never achieved; Melt state ([2]; racemic ibuprofen in place of S(+)-ibuprofen, samples as in Table 2, even at 25% IPA or higher): complete melt was never achieved

For `CC(C)Cc1ccc([C@H](C)C(=O)O)cc1` [S(+)-ibuprofen, a-methyl-4-(2-methylpropyl) benzene-acetic acid], which Melt state ([3]; SI:T ratios 5:5 to 6:4 (w:w), ambient temperature (20-25° C.)) is on record?
Its Melt state is “spontaneously formed a homogeneous oil”.

And the Melt state ([3]; SI:T ratios outside 5:5 to 6:4 (1:9 to 9:1 tested), 25° C.)?
The Melt state was “complete melting of the compounds did not occur”.

What about the Melt state ([2]; 5% S(+)-ibuprofen, 5% IPA, pH 4.0 acetate buffer, 3 months) of the same compound?
Its Melt state is “S”.

What about the Melt state ([2]; 5% S(+)-ibuprofen, 10% IPA, pH 4.0 acetate buffer, 3 months) of the same compound?
Its Melt state is “S”.

And the Melt state ([2]; 5% S(+)-ibuprofen, 15% IPA, pH 4.0 acetate buffer, 3 months)?
The Melt state was “O”.

What about the Melt state ([2]; 5% S(+)-ibuprofen, 20% IPA, pH 4.0 acetate buffer, 3 months) of the same compound?
Its Melt state is “O”.

What about the Melt state ([2]; isopropyl alcohol 10% or less by weight of total composition) of the same compound?
The Melt state was “did not completely melt”.

What about the Melt state ([2]; isopropyl alcohol 15% or higher) of the same compound?
Its Melt state is “completely transformed into an oil”.

What about the “concentration of S(+)-ibuprofen in the oil” value [4] of the same compound?
Its value is 68.4 % (w:w).
